Measurements published in patent US10919941B2, “Functional lipid constructs” (KODE BIOTECH LIMITED, priority 2007, dated 2021).
No end group written: not given here.

Experiments:
CSL monoclonal anti-A = test: BioVue serology of RBCs modified with Atri-lipid constructs against anti-A; assay type: cell-based; parameters: key: 0 or ‘−’ no agglutination; 0 or ‘−’ no agglutination; 1+ or 3=very weak agglutination; 1+ or 3=very weak agglutination; 2+ or 5=weak agglutination; 2+ or 5=weak agglutination; 3+ or 8=moderate strong agglutination; 3+ or 8=moderate strong agglutination; 4+ or 10/12=strong agglutination; 4+ or 10/12=strong agglutination; 4+ or 10/12=strong agglutination
Experimental: To test the hypothesis solutions of four different trisaccharide (Atri)-lipid constructs were prepared as 50 μM, 10 μM and 5 μM solutions in Celpresol™. Modified red blood cells were then prepared by contacting 0.6 mls (pcv) of washed RBCs with 0.6 mls of the relevant solution. The mixtures were incubated at 37° C. for 2 hours and then washed 3 times to provide a modified cell suspension.
The modified cell suspensions were prepared in 0.8% in Celpresol LISS™ suitable for BioVue serology cards. A volume of 0.05 mls of CSL monoclonal anti-A (026129801) followed by 0.05 mls of modified cell suspension was applied to each card. Reactions were recorded following centrifugation in a BioVue cassette centrifuge (Table 29).
There was no significant gain with CMG(2) compared with CMG(4). There was a minor, but not significant change for MCMG (2).

[1] = test system: Miltenberger Antibody Positive Panel; test: Reactivity of modified RBCs against the Miltenberger Antibody Positive Panel; assay type: cell-based, human; parameters: key to score vs panel 15 TAP2 / score vs panel 4 T7202 / score vs panel 8 T5896 / score vs panel 2 T217 / score vs panel 3 T165 / score vs panel 14 TAP1 / score vs panel 10 Mia / score vs panel 11 Mur / score vs panel 12 Gam / score vs panel 6 T6025 / score vs panel 7 T8445 / score vs panel 9 MIII / score vs panel 13 BoxH / reactivity with Panel Serum #7 (T8445) / agglutination score, Panel Serum #7 (T8445): 0 or ‘−’ no agglutination; 0 or ‘−’ no agglutination; 1+ or 3=very weak agglutination; 1+ or 3=very weak agglutination; 2+ or 5=weak agglutination; 2+ or 5=weak agglutination; 3+ or 8=moderate strong agglutination; 3+ or 8=moderate strong agglutination; 4+ or 10/12=strong agglutination; 4+ or 10/12=strong agglutination; 4+ or 10/12=strong agglutination
Experimental: (§1) Red blood cells are modified by mixing 1 part by volume of washed packed red blood cells with 1 part by volume of peptide-lipid construct dispersed at a concentration of 10 to 1000 pg/ml in cell media (Celpresol™).
(§2) The suspensions are either: • 1. incubated for 2 hours at 37° C. before being washed and suspended in a cell medium for serological analysis at a concentration of 0.8 to 3% (Method 1); or • 2. incubated for 3 to 4 hours at room temperature (circa 25° C.) followed by 18 hours at 4° C. before being washed and suspended in a cell medium for serological analysis at a concentration of 0.8 to 3% (Method 2).
(§3) Serological reactions are graded or scored by either of two established systems (0 or ‘−’ no agglutination, 1+ or 3=very weak agglutination, 2+ or 5=weak agglutination, 3+ or 8=moderate strong agglutination, 4+ or 10/12=strong agglutination)
(§4) Serological platforms used are Tube (addition of reagents and reactants into plastic or glass serology tubes and after appropriate incubations, washing and centrifugation observing reactions macroscopically by eye and a 10× magnification eyepiece and scoring) and BioVue™ (addition of reactants into cassettes containing beads (including some reactants) and after appropriate incubations and centrifugation observing the reaction patterns trapped within the Gel matrix). BioVue is the serological column agglutination platform of Ortho-Clinical Diagnostics. Diamed is the serological column agglutination platform of Diamed AG.

[2] = test system: sera reactive with modified RBCs; test: Neutralisation of reactive sera with free peptide, retested against modified RBCs (BioVue); assay type: cell-based, human; parameters: key: 0 or ‘−’ no agglutination; 0 or ‘−’ no agglutination; 1+ or 3=very weak agglutination; 1+ or 3=very weak agglutination; 2+ or 5=weak agglutination; 2+ or 5=weak agglutination; 3+ or 8=moderate strong agglutination; 3+ or 8=moderate strong agglutination; 4+ or 10/12=strong agglutination; 4+ or 10/12=strong agglutination; 4+ or 10/12=strong agglutination
Source text: Optionally, where F is a peptide, the method includes the preliminary step of: • Adding an amount of the peptide to the sample of the serum; where the amount of the peptide is sufficient to neutralize non-specific agglutination or confirm specificity of the reactive antibody.

[3] = test system: Miltenberger antibody positive sera; test: BioVue AHG card column agglutination serology of modified red blood cells; assay type: cell-based, human; parameters: key: 0 or ‘−’ no agglutination; 0 or ‘−’ no agglutination; 1+ or 3=very weak agglutination; 1+ or 3=very weak agglutination; 2+ or 5=weak agglutination; 2+ or 5=weak agglutination; 3+ or 8=moderate strong agglutination; 3+ or 8=moderate strong agglutination; 4+ or 10/12=strong agglutination; 4+ or 10/12=strong agglutination; 4+ or 10/12=strong agglutination; settings: construct 100 μg/ml
Experimental: as §1, §2, §3, §4

antibody negative serums = test: False positive reactions of modified RBCs with antibody negative serums/plasma; assay type: cell-based, human; parameters: key to Reaction score BioVue AHG, PAC samples 1-46, 49, 50, 52, 53 / Reaction score BioVue AHG, PAC sample 47 / Reaction score BioVue AHG, PAC sample 48 / Reaction score BioVue AHG, PAC sample 51 / agglutination score, T series serum 2 / agglutination score, T series serum 42 / agglutination score, T series serum 63 / agglutination score, T series serum 62 / agglutination score, T series serum 7 / agglutination score, T series serum 20 / agglutination score, T series serum 48 / agglutination score, T series serum 22 / agglutination score, T series serum 39 / agglutination score, T series serum 23 / agglutination score, T series serum 30 / agglutination score, T series serum 4 / agglutination score, T series serum 31 / agglutination score, T series serum 44 / agglutination score, T series serum 61 / agglutination score, T series serum 18 / agglutination score, T series serum 21 / agglutination score, T series serum 28 / agglutination score, T series serum 55 / agglutination score, false positive serum T18 / agglutination score, false positive serum T21 / agglutination score, false positive serum T28 / agglutination score, false positive serum T55 / agglutination score, false positive serum T78 / agglutination score, false positive serum T92: 0 or ‘−’ no agglutination; 0 or ‘−’ no agglutination; 1+ or 3=very weak agglutination; 1+ or 3=very weak agglutination; 2+ or 5=weak agglutination; 2+ or 5=weak agglutination; 3+ or 8=moderate strong agglutination; 3+ or 8=moderate strong agglutination; 4+ or 10/12=strong agglutination; 4+ or 10/12=strong agglutination; 4+ or 10/12=strong agglutination; settings: BioVue AHG cards
[4] = cells modified at 500 μg/ml (Method 1), BioVue cards
[5] = serum neutralised with peptide SSQTNDKHKRDTY (10 μL of 1 mg/ml to 50 μL, 30 minutes 37° C.), BioVue cards
[6] = cells modified with the peptide-lipid construct M28, AHG test in BioVue
[7] = cells modified at 50 μg/ml, 2 hour 37° C.

Adipate
12: Serological result, anti-A Neat (CSL monoclonal anti-A; construct 50 μM) | Serological result, reciprocal of dilution of anti-A 2 (CSL monoclonal anti-A; construct 50 μM) | Serological result, reciprocal of dilution of anti-A 4 (CSL monoclonal anti-A; construct 50 μM) | Serological result, reciprocal of dilution of anti-A 8 (CSL monoclonal anti-A; construct 50 μM) | Serological result, reciprocal of dilution of anti-A 16 (CSL monoclonal anti-A; construct 50 μM) | Serological result, reciprocal of dilution of anti-A 32 (CSL monoclonal anti-A; construct 50 μM)
8: Serological result, anti-A Neat (CSL monoclonal anti-A; construct 5 μM) | Serological result, reciprocal of dilution of anti-A 2 (CSL monoclonal anti-A; construct 5 μM) | Serological result, reciprocal of dilution of anti-A 8 (CSL monoclonal anti-A; construct 10 μM) | Serological result, reciprocal of dilution of anti-A 16 (CSL monoclonal anti-A; construct 10 μM) | Serological result, reciprocal of dilution of anti-A 32 (CSL monoclonal anti-A; construct 10 μM) | Serological result, reciprocal of dilution of anti-A 64 (CSL monoclonal anti-A; construct 10 μM) | Serological result, reciprocal of dilution of anti-A 128 (CSL monoclonal anti-A; construct 50 μM) | Serological result, reciprocal of dilution of anti-A 256 (CSL monoclonal anti-A; construct 50 μM)
10: Serological result, anti-A Neat (CSL monoclonal anti-A; construct 10 μM) | Serological result, reciprocal of dilution of anti-A 2 (CSL monoclonal anti-A; construct 10 μM) | Serological result, reciprocal of dilution of anti-A 4 (CSL monoclonal anti-A; construct 10 μM) | Serological result, reciprocal of dilution of anti-A 64 (CSL monoclonal anti-A; construct 50 μM)
3: Serological result, reciprocal of dilution of anti-A 8 (CSL monoclonal anti-A; construct 5 μM) | Serological result, reciprocal of dilution of anti-A 128 (CSL monoclonal anti-A; construct 10 μM) | Serological result, reciprocal of dilution of anti-A 512 (CSL monoclonal anti-A; construct 50 μM)
5: Serological result, reciprocal of dilution of anti-A 4 (CSL monoclonal anti-A; construct 5 μM)

M13: DOPE peptide-lipid construct: MUTK peptide SSQTNDKHKRDTY, leader c (Cys), spacer PEG6 (SSQTNDKHKRDTYC; also: DOPE peptide-lipid construct via leader Cys, spacer PEG6)
3: score vs panel 8 T5896 ([1]; Table 8, construct 250 μg/ml)
8: score vs panel 2 T217 ([1]; Table 8, construct 250 μg/ml) | score vs panel 4 T7202 ([1]; Table 8, construct 250 μg/ml) | score vs panel 6 T6025 ([1]; Table 8, construct 250 μg/ml) | score vs panel 13 BoxH ([1]; Table 8, construct 250 μg/ml) | agglutination score, serum #3, serum alone [2, 4] | agglutination score, serum #34, serum alone [2, 4] | agglutination score, serum #37, serum alone [2, 4] | agglutination score, serum #42, serum alone [2, 4]
0: score vs panel 3 T165 ([1]; Table 8, construct 250 μg/ml) | score vs panel 7 T8445 ([1]; Table 8, construct 250 μg/ml) | score vs panel 9 MIII ([1]; Table 8, construct 250 μg/ml) | score vs panel 10 Mia ([1]; Table 8, construct 250 μg/ml) | score vs panel 11 Mur ([1]; Table 8, construct 250 μg/ml) | score vs panel 12 Gam ([1]; Table 8, construct 250 μg/ml) | agglutination score, serum #3, serum + peptide [2, 5] | agglutination score, serum #34, serum + peptide [2, 5] | agglutination score, serum #37, serum + peptide [2, 5] | agglutination score, serum #42, serum + peptide [2, 5]

M28: DOPE peptide-lipid construct: Mur peptide TYPAHTANE, leader c, spacer CMG(2) (TYPAHTANEC; also: DOPE peptide-lipid construct via leader Cys, spacer CMG(2))
9%: % positive (antibody negative serums; T series reactives (n = 58))
5: Pre-neutralisation serology, PAC71 [2, 6] | Pre-neutralisation serology, PAC72 [2, 6]
0: score vs panel 2 T217 ([1]; Table 9, construct 50 μg/ml) | score vs panel 8 T5896 ([1]; Table 9, construct 50 μg/ml) | agglutination score, T series serum 7 (antibody negative serums; [7]) | agglutination score, T series serum 18 (antibody negative serums; [7]) | agglutination score, T series serum 20 (antibody negative serums; [7]) | agglutination score, T series serum 21 (antibody negative serums; [7]) | agglutination score, T series serum 22 (antibody negative serums; [7]) | agglutination score, T series serum 23 (antibody negative serums; [7]) | agglutination score, T series serum 28 (antibody negative serums; [7]) | agglutination score, T series serum 30 (antibody negative serums; [7]) | agglutination score, T series serum 39 (antibody negative serums; [7]) | agglutination score, T series serum 42 (antibody negative serums; [7]) | agglutination score, T series serum 48 (antibody negative serums; [7]) | agglutination score, T series serum 55 (antibody negative serums; [7]) | agglutination score, T series serum 62 (antibody negative serums; [7]) | agglutination score, T series serum 63 (antibody negative serums; [7])
10: TAP 2 Serum BioVue AHG score [3] | score vs panel 4 T7202 ([1]; Table 9, construct 50 μg/ml) | agglutination score, T series serum 2 (antibody negative serums; [7]) | agglutination score, T series serum 44 (antibody negative serums; [7]) | agglutination score, T series serum 61 (antibody negative serums; [7])
8: score vs panel 7 T8445 ([1]; Table 9, construct 50 μg/ml) | score vs panel 15 TAP2 ([1]; Table 9, construct 50 μg/ml) | agglutination score, Panel Serum #7 (T8445) ([1]; cells modified at 50 μg/ml, 2 hour 37° C., BioVue AHG cards) | reactivity with Panel Serum #7 (T8445) ([1]; construct 50 μg/ml (2 hours, 37° C.)) | Pre-neutralisation serology, PAC70 [2, 6] | Pre-neutralisation serology, TAP2 [2, 6] | agglutination score, T series serum 4 (antibody negative serums; [7]) | agglutination score, T series serum 31 (antibody negative serums; [7])
